Measured values: patent US20260345640A1 (priority 2025, published 2026)
In brackets after ≈: the same amount, converted by molar mass. Structures can show the parent of a compound that is named as a salt. Where two headings read alike, the source gives them in different places.

Legend:
[1] = system: E. coli DH5αZ1 expressing TetX7; assay: Minimum inhibitory concentration, TetX7-expressing strain; format: cell-based; settings: Escherichia coli, 20 h
Experimental: (§1) The panels were stored at −80 °C before use. Single colonies of E. coli DH5αZ1 containing TetX7, Tet50, or empty vector in pZE24 expression system were grown in MH-II broth with KAN50 and growth for overnight at 37 °C. On the day of the experiment, MIC panels were thawed at room temperature. […] The panels were incubated at 37 °C for 20 h, then scored by visual inspection. […] Each test was performed in triplicate, with no-antibiotic and no-cell control wells.
(§2) Minimum inhibitory concentrations (MICs) were determined using the broth microdilution method according to CLSI guidelines. Visual inspection of bacterial growth and measurement of the OD600 were used to determine the lowest concentration at which bacterial growth was inhibited.

[2] = system: E. coli DH5αZ1 expressing Tet50; assay: Minimum inhibitory concentration, Tet50-expressing strain; format: cell-based; settings: 20 h; for MIC: Escherichia coli; for MIC, Tet50, +TC: presence of 8 μg/mL TC, 37 °C
Experimental: as §1, §2

Tet50 = molecular target: T1, Tet50 (Unknown prokaryotic organism, UniProt A0A059WYP6); assay: In vitro inhibition of TC oxidation by Tet50 (A400), variable preincubation, dark or blue light; format: biochemical; settings: role: inhibitor, 100 μM TC, 500 μM NADPH
T1 construct: made in house; host or cells: E. coli BL21-Star (DE3)
Experimental: PHBH activity was determined similarly using para-hydroxybenzoic acids as substrate and monitoring for NADPH consumption via A340. […] Reaction samples were prepared in a Costar 96-well flat bottom clear, polystyrene plate and incubated under dark or a 700 lm blue LED bulb held at a distance of 20 cm for various durations. Incubation times were 0, 30, 60, 120, and 240 min under dark or 0, 1, 2, 4, and 8 min under blue light. […] Initial enzyme velocities were determined by linear regression over the linear range of the reaction (typically between 0 and 1 min). […] The velocities were plotted against the logarithm of inhibitor concentration, and apparent IC50 plots were analyzed using GraphPad prism 10 software. […] All apparent IC50 values were plotted against the duration of incubation time and fitted to an exponential decay function. All data points were shown as means and error bars represented standard deviation at least two independent experiments.
TetX7 and TetX6 as model Type 1 enzymes and Tet50 as a model Type 2 enzyme were used.
A hallmark of covalent enzyme inhibition was time dependence given that longer exposure of the enzyme to the inhibitor allowed for more inactivating turnovers. […] The apparent IC50 values were determined for each preincubation time point by monitoring the TDase velocity at A400 under various inhibitor concentrations. The apparent IC50 values were plotted against the preincubation times to determine if the TDase inhibition was time-dependent (FIG. 6).

[3] = dark, 30 min preincubation of inhibitor with enzyme prior to initiating assay, read-out: Apparent IC50 values, Tet50
[4] = read-out: Apparent IC50 value over 7 min blue light, blue light, 7 min

T1 sequence (A0A059WYP6 whole entry): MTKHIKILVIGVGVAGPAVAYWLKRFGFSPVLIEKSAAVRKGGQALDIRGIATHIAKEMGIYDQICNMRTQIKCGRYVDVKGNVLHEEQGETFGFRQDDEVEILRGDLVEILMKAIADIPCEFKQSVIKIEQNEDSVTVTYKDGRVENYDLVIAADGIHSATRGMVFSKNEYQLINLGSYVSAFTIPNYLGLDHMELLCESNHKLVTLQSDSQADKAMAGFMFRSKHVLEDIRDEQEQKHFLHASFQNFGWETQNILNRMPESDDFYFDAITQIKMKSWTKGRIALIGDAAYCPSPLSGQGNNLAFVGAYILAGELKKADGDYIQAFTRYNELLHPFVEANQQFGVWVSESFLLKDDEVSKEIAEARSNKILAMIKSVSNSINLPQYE

With `Cc1c2c(c(O)c3c(O)c(CNC4(C)CC4)ccc13)C(=O)C1(O)C(=O)C(C(N)=O)=C(O)C(N(C)C)C1C2` [Compound 103, (4S,4aS,12aS)-4-(Dimethylamino)-3,10,11,12a-tetrahy-droxy-6-methyl-9-(((1-methylcyclopropyl)amino)methyl)-1,12-dioxo-1,4,4a,5,12,12a-hexahydrotetracene-2-carboxamide Hydrochloride] the MIC ([1]; read-out: MIC, TetX7, −TC) was 64 µg/mL, the MIC ([2]; read-out: MIC, Tet50, −TC) was 64 µg/mL and the “MIC, Tet50, +TC” value [2] was 16 µg/mL.

For `C#CCNCc1ccc2c(C)c3c(c(O)c2c1O)C(=O)[C@]1(O)C(=O)C(C(N)=O)=C(O)[C@@H](N(C)C)[C@@H]1C3.Cl` [Compound 104, (4S,4aS,12aS)-4-(Dimethylamino)-3,10,11,12a-tetrahydroxy-6-methyl-1,12-dioxo-9-((prop-2-yn-1-ylamino)-methyl)-1,4,4a,5,12,12a-hexahydrotetracene-2-carboxamide Hydrochloride], the IC50 (Tet50; [3]) was 600 ± 40 µM and the “MIC, Tet50, +TC” value [2] was 8 µg/mL.

Work on `C#CCN(C)Cc1ccc2c(C)c3c(c(O)c2c1O)C(=O)[C@]1(O)C(=O)C(C(N)=O)=C(O)[C@@H](N(C)C)[C@@H]1C3` [Compound 105] yielded an IC50 (Tet50; [4]) of 107 ± 6 µM, an IC50 (Tet50; [3]) of 470 ± 60 µM and an MIC ([2]; read-out: MIC, Tet50, −TC) of 32 µg/mL (≈ 63 µM). The “MIC, Tet50, +TC” value [2] was 16 µg/mL.

`Cc1c2c(c(O)c3c(O)cccc13)C(=O)[C@]1(O)C(=O)C(C(N)=O)=C(O)[C@@H](N(C)C)[C@@H]1C2` [Compound 106, Anhydrotetracycline, reference compound] was tested, and the IC50 (Tet50; [4]) was 70 ± 10 µM, the IC50 (Tet50; blue light, start of course, read-out: Apparent IC50 value at start of blue light course) was 500 ± 60 µM and the IC50 (Tet50; dark, 240 min preincubation, read-out: Apparent IC50 value over 240 min preincubation) was 340 ± 40 µM.

Compound `CN(C)[C@@H]1C(O)=C(C(N)=O)C(=O)[C@@]2(O)C(O)=C3C(=O)c4c(O)cccc4[C@@](C)(O)[C@H]3C[C@@H]12` [TC, tetracycline, reference compound] has an MIC ([1]; read-out: MIC of TC against TetX7::pZE24) of 16 µg/mL and an MIC ([2]; read-out: MIC of TC against Tet50::pZE24) of 16 µg/mL.
